Data published in patent US8883826B2, “Alkynyl derivatives as modulators of metabotropic glutamate receptors” (Addex Pharma SA, priority 2004, dated 2014).
Entries after “also recorded” stand apart in the source; their conditions may differ.

Tests used:
mGluR5 = biological target: T1, mGluR5 (Rattus norvegicus, UniProt P31424); experiment: mGluR5 binding assay ([3H]-MPEP radioligand competition); details: competition with 3 nM [3H]-MPEP, rat brain cortical membranes, 1 h at 4 °C; mean of at least three independent experiments in duplicate
T1 construct: tissue Charles River Laboratories; host or cells: rat brain cortex membranes (Sprague-Dawley)
T1 sequence (P31424 21-1203): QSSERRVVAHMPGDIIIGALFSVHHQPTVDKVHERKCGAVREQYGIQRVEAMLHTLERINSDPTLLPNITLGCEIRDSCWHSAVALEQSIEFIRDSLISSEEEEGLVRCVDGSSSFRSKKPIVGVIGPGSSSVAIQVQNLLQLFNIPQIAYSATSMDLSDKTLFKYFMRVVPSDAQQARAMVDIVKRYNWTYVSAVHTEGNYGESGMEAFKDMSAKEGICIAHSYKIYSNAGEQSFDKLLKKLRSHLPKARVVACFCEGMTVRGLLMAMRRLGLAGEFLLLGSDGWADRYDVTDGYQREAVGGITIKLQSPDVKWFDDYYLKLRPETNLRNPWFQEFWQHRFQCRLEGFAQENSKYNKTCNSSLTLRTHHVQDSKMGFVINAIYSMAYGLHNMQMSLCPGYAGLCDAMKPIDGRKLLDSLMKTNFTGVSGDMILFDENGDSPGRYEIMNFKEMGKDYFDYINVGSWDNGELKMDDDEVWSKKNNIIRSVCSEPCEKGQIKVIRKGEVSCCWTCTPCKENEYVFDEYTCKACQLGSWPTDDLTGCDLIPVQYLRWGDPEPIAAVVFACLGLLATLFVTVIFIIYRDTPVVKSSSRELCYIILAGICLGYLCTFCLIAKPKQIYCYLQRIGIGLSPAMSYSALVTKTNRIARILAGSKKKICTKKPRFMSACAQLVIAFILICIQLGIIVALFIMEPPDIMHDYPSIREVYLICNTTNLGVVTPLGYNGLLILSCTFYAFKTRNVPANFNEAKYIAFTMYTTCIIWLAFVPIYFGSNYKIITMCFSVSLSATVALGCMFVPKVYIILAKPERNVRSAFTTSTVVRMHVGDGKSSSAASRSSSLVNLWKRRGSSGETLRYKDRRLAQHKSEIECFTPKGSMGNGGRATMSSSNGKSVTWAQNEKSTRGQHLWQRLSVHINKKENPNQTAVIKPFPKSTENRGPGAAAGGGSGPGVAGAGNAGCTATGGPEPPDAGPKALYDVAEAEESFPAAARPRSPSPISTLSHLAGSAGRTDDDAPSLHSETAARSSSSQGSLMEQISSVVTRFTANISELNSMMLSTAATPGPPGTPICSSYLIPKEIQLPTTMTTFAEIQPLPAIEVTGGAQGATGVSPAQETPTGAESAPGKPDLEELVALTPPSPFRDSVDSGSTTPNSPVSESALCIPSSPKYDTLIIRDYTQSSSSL
In short: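 Rat cortical membranes (50 μg) were incubated 1 h at 4 °C with 3 nM [3H]-MPEP and compound (0.003 nM-30 μM, 8 points) in HEPES buffer pH 7.4 with Mg2+, Ca2+ and NaCl. 30 μM MPEP defined non-specific binding, and bound label was counted after filtration. IC50 came from non-linear regression, as the mean of ≥3 experiments run in duplicate.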

Male Sprague-Dawley rats = experiment: Vogel conflict drinking model of anxiety; assay type: in vivo, rat; details: n=9-10/group
From the text: Vogel Conflict Drinking Model of Anxiety in Rats
The Vogel conflict drinking model involves the conflict between thirst and receiving mild shocks for drinking water (punished drinking). Water-deprived rats are placed in a chamber and are periodically shocked for drinking water. The shocks suppress drinking and anxiolytics reverse this shock-induced suppression of drinking. The Vogel conflict drinking model was first proposed as a screening model for anxiolytics (Vogel, J. R. et al., Psychopharmacologia (Berl.), 21:1-7 (1971)) and is widely accepted as a robust model for testing the anxiolytic-like properties of compounds (Millan, M. J. and Brocco M., European Journal of Pharmacology, 463:67-96 (2003)).
Such compounds may be useful in the treatment of anxiety and related disorders. […]
The effect of compounds on drinking in the Vogel conflict drinking model in rats was tested. […] The number of punished drinks was counted automatically by the computer interface. […]
Statistical analyses were performed using GraphPad PRISM version 4.01 statistical software (GraphPad, San Diego, Calif., USA). Data were analyzed using one-way analysis of variance (ANOVA) followed by Bonferroni multiple comparisons. […]

Male C57BL6/j mice = experiment: Marble burying model of anxiety; assay type: in vivo, mouse; details: 30 mg/kg po, 60 minutes prior to test, n=10/group, t=3.686, p<0.01
From the text: Marble Burying Model of Anxiety
Marble burying behavior in mice is reduced by compounds which are efficacious anxiolytics in humans. Thus, marble burying in mice has been used as a model for the prediction of anxiolytic-like effects of compounds (Millan, M. J. et al., Neuropharmacology, 42:677-684 (2002)).
Selective negative allosteric modulators (allosteric antagonists) of the metabotropic glutamate receptor subtype 5 (mGluR5) have been shown previously to reduce marble burying in mice (Spooren, W. P. et al., Journal of Pharmacology and Experimental Therapeutics, 295:1267-1275 (2000)). […] Such compounds may be useful in the treatment of anxiety and related disorders.
The present studies were performed in accordance with the animal care and use policies of Addex Pharmaceuticals and the EEC directives on the protection of animals used for experimental and other scientific purposes (86/609/EEC and subsequent revisions). […]
The effect of compounds on marble burying in mice was tested. […] After removal of the mice from the test cages, the number of marbles buried was counted. […]
Statistical analyses were performed using GraphPad PRISM version 4.01 statistical software (GraphPad, San Diego, Calif., USA). Data were analyzed using one-way analysis of variance (ANOVA) followed by Bonferroni-corrected multiple comparisons, or t tests if only 2 groups were present. […]

melting point [°C]	IC50 (mGluR5) [µM]	SMILES	punished drinking in the Vogel conflict drinking test (vs vehicle) (Male Sprague-Dawley rats; 10 mg/kg po, t=3.585, p<0.01)	marble burying in mice (number of marbles buried vs vehicle) (Male C57BL6/j mice)	punished drinking in the Vogel conflict drinking test (vs vehicle) (Male Sprague-Dawley rats; 30 mg/kg po, t(1, 17)=2.593, hydrochloride)
73 to 74.5	< 0.05	FCc1cccc(C#CCCc2cn3cccc(Cl)c3n2)n1 [Example 256, 8-Chloro-2-(4-(6-(fluoromethyl)pyridin-2-yl)but-3-ynyl)-imidazo[1,2-a]pyridine]	significantly increases punished drinking; also recorded: accepted significantly more shocks than vehicle-treated rats	significantly attenuates marble burying; also recorded: buried fewer marbles than vehicle-treated mice	–
172.5 to 173.5	< 0.05	Cl.FCc1cccc(C#CCCn2nc3ccccc3n2)n1 [Example 130, 2-(4-(6-(Fluoromethyl)pyridin-2-yl)but-3-ynyl)-2H-benzo[d][1,2,3]triazole hydrochloride]	–	–	significantly increases punished drinking; also recorded: took significantly more punished licks than vehicle injected controls
